Data taken from ChEMBL document CHEMBL4251753, “Discovery of Potent 2-Aryl-6,7-dihydro-5 H-pyrrolo[1,2- a]imidazoles as WDR5-WIN-Site Inhibitors Using Fragment-Based Methods and Structure-Based Design” (J Med Chem, 2018).

system: MV4-11; assay: Antiproliferative activity against human MV4-11 cells after 7 days by cell titer glo assay; format: functional; conditions: MV4-11, 168 h

Structure (SMILES) | GI50
Cc1cc(C(=O)N[C@@H]2CCc3ccc(-c4cn5c(n4)CCC5)cc32)ccn1 | > 30 µM
COc1cc(C(=O)N[C@@H]2CCCc3ccc(-c4cn5c(n4)CCC5)cc32)ccc1C | 22.3 µM
COc1cc(C(=O)N[C@@H]2CCc3ccc(-c4cn5c(n4)CCC5)cc32)cc(OC)c1C | 7.25 µM
O=C(Cc1ccc(Cl)c(Cl)c1)N[C@@H]1CCc2ccc(-c3cn4c(n3)CCC4)cc21 | 8.89 µM
